In PubChem BioAssay (NCI):
Several values for one entry are separate records, joined by “and”; a condition that tells them apart may be missing. Identical values can stand only once.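 1) Cells in 96-well plates. 2) Compound, 48 h, 5 concentrations. 3) Linear interpolation between surrounding doses. 4) Unreached endpoint = highest concentration. GI50 marks 50% less growth. Definition used: TGI = concentration required for complete inhibition of growth.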

Tests used:
Assay in all cases: NCI anticancer screen, dose series, 48 h
MCF7 breast = tested on: MCF7 breast
SW-620 colon = tested on: SW-620 colon
DU-145 prostate = tested on: DU-145 prostate
OVCAR-8 ovarian = tested on: OVCAR-8 ovarian
PC-3 prostate = tested on: PC-3 prostate
SF-295 CNS = tested on: SF-295 CNS
T-47D breast = tested on: T-47D breast
SK-MEL-2 melanoma = tested on: SK-MEL-2 melanoma
NCI-H226 lung = tested on: NCI-H226 lung
HL-60(TB) leukemia = tested on: HL-60(TB) leukemia

| SMILES | TGI (MCF7 breast) [µM] | TGI (SW-620 colon) [µM] | TGI (DU-145 prostate) [µM] | TGI (OVCAR-8 ovarian) [µM] | TGI (PC-3 prostate) [µM] | TGI (SF-295 CNS) [µM] | TGI (T-47D breast) [µM] | TGI (SK-MEL-2 melanoma) [µM] | TGI (NCI-H226 lung) [µM] | TGI (HL-60(TB) leukemia) [µM] | GI50 (SW-620 colon) [µM] | GI50 (OVCAR-8 ovarian) [µM] | GI50 (HL-60(TB) leukemia) [µM] | GI50 (SF-295 CNS) | GI50 (SK-MEL-2 melanoma) [µM] | GI50 (NCI-H226 lung) [µM] | GI50 (MCF7 breast) [µM] | GI50 (DU-145 prostate) [µM] | GI50 (T-47D breast) [µM] | GI50 (PC-3 prostate) [µM] |
| --- | --- | --- | --- | --- | --- | --- | --- | --- | --- | --- | --- | --- | --- | --- | --- | --- | --- | --- | --- | --- |
| Cc1c(Cl)ccc2c1NC(=O)C2(O)CC(=O)c1ccc(Cl)cc1Cl (centres undefined) | > 50 | > 50 | > 50 | > 50 | > 50 | > 50 | > 50 | > 50 | > 50 |  |  |  |  |  |  |  |  |  |  |  |
| O=c1cc2n(c(=O)[nH]1)C1OC(C(O)C1O)[C@@H]2CCO (some centres undefined) |  | > 100 |  | > 100 |  | > 100 |  | > 100 |  | > 100 |  |  |  |  |  |  |  |  |  |  |
| O=C(NC1CCCCC1)c1c(O)[nH]c(=S)[nH]c1=O |  | > 100 |  | > 100 |  | > 100 |  | > 100 | > 100 |  |  |  |  |  |  |  |  |  |  |  |
| CC(=O)[CH-]C(=O)c1ccccc1.CC(=O)[CH-]C(=O)c1ccccc1.[Nd+3].[OH-].[OH3+] |  | > 100 |  | > 100 |  | > 100 |  | > 100 | > 100 | > 100 | > 100 | > 100 | > 100 | > 100 µM | > 100 | > 100 |  |  |  |  |
| [Cu+2].[Cu+2].[O-]c1ccccc1C=Nc1ccccc1[O-].[O-]c1ccccc1C=Nc1ccccc1[O-] |  | 26.2 |  | 31.6 |  | 27.6 |  | 24.4 | 36.5 | 7.24 | 6.61 | 8.16 | 2.52 | 8.01 µM | 11.5 | 20.4 |  |  |  |  |
| CCCCN(CC)C(=O)C(=O)C1C(=O)Nc2ccccc2S1=O (centres undefined) |  | > 100 |  | > 100 |  |  |  | > 100 | > 100 |  |  |  |  |  |  |  |  |  |  |  |
| COc1nc(OC)c2c(=O)oc(-c3ccccc3)cc2n1 |  | > 100 |  | > 100 |  | > 100 |  | > 100 | > 100 |  |  |  |  |  |  |  |  |  |  |  |
| COc1cc2c(cc1OC)C13CCN4CC5=CCOC(CC(=O)O)C(C5CC41)C3N2 (centres undefined) | > 100 | > 100 |  | > 100 | > 100 | > 100 |  | > 100 | > 100 | > 100 |  |  |  |  |  |  |  |  |  |  |
| CCc1nc2c(O)ccc(O)c2nc1C |  | 4.1 |  | 23.8 |  | 34.2 |  | 32.2 | 29.9 | > 21.7 |  |  |  |  |  |  |  |  |  |  |
| O=C(O)CSc1n[nH]c(/C=C/c2ccccc2)n1 |  | > 100 |  | > 100 |  | > 100 |  | > 100 | > 100 | > 100 |  |  |  |  |  |  |  |  |  |  |
| COC(=O)N1[C@H]2Cc3c(OC)c(C)c(OC)c(OC)c3[C@@H]1/C(=C\c1cc(OC)c(OC)c(C)c1OC)N(Cc1ccccc1)C2=O |  |  |  | > 100 |  | > 100 |  | > 100 | 11.7 | 30.2 |  |  |  |  |  |  |  |  |  |  |
| COC(=O)c1cnc2nc(N3CCOCC3)[nH]n2c1=O |  | > 100 |  | > 100 |  | > 100 |  | > 100 | > 100 | > 100 |  |  |  |  |  |  |  |  |  |  |
| C=C1C(=O)O[C@@H]2C[C@]3(C)[C@@H](C[C@H]12)[C@](C)(O)CC[C@@H]3O |  | > 100 |  | > 100 |  | > 100 |  | > 100 | > 100 |  |  |  |  |  |  |  |  |  |  |  |
| CC(NC(=O)c1ccccc1)C(=O)N(Cc1ccccc1)Cc1ccccc1 (centres undefined) |  | > 100 |  |  |  | 75 |  | 56.3 | 56.3 |  |  |  |  |  |  |  |  |  |  |  |
| O=C(NO)c1ccc(C(=O)NO)cc1 | > 100 | > 100 | > 100 | > 100 | > 100 | > 100 | > 100 |  | > 100 | > 100 |  |  |  |  |  |  |  |  |  |  |
| CN(C(=O)C1CCCCC1)c1ccccc1I(=O)=O | > 100 | 44.6 | > 100 | > 100 |  | > 100 | 44.2 | > 100 | > 100 | 36.8 | 20 | 74.8 | 13.5 | 36.5 µM | > 100 | > 100 | 43.7 | 55.9 | 16.4 |  |
| Cc1c(/C=C2\CC/C(=C\c3[nH]c(C(=O)OC(C)(C)C)c(C)c3C)C2=O)[nH]c(C(=O)OC(C)(C)C)c1C |  | > 100 |  | > 100 |  | > 100 |  | > 100 | > 100 | > 100 |  |  |  |  |  |  |  |  |  |  |
| COc1ccc(CNc2cc(OC)cc(OC)c2)cc1 |  | > 100 |  | > 100 |  | > 100 |  | > 100 | > 100 | > 100 |  |  |  | > 100 µM and 38.2 µM |  |  |  |  |  |  |
| COC(=O)OCC1OC(N2C(=O)NC(=O)C(I)C2N=[N+]=[N-])CC1OC(=O)OC (centres undefined) |  | > 100 |  | > 100 |  | > 100 |  |  | > 100 | > 100 |  |  |  |  |  |  |  |  |  |  |
| O=C1OCC(c2ccc(O)c(O)c2)=C1c1cc(O)c(O)c(O)c1 | > 100 | 42.8 | > 100 | > 100 | 43.3 | 30.9 | 60.2 |  | > 100 |  | 21.1 | 75 |  | 14.6 µM |  | 69 | 36.9 | 32.7 | 23.2 | 17.9 |
| C=C1C(=O)O[C@H]2[C@H]1CC/C(COC(=O)OCCCCCOC(=O)OC/C1=C/CC[C@@]3(C)O[C@H]3[C@H]3OC(=O)C(=C)[C@@H]3CC1)=C\CC[C@@]1(C)O[C@@H]21 |  | 0.902 | 2.3 | 0.998 | 4.54 | 5.88 | 0.75 | 3.31 | 3.42 | 0.793 | 0.285 | 0.331 | 0.281 | 2.12 µM | 1.37 | 1.64 |  | 1.04 | 0.244 | 1.83 |
| CC(=O)O[C@]1(C(C)=O)CC[C@H]2[C@@H]3C[C@H](C)C4=CC(=O)C=C[C@]4(C)[C@@]3(F)[C@@H](O)C[C@@]21C |  | > 100 |  |  |  | > 100 |  |  | > 100 | > 100 |  |  |  |  |  |  |  |  |  |  |
| c1ccc2c(c1)O[As](O[As]1Oc3ccccc3O1)O2 | 13.2 | 14.8 | 15.2 | 15.4 |  | 22.9 | 14.6 | 8.61 | 19.7 | 3.92 | 3.01 | 2.59 | 1.49 | 6.48 µM | 2.76 | 3.61 | 1.86 | 3.96 | 1.69 |  |
| CCCCCCC1CCC2CCCC(C)N12 (centres undefined) |  | 31.1 |  | > 100 |  | > 100 |  | 69.2 | > 100 | 38.2 |  |  |  |  |  |  |  |  |  |  |
| CCCCOC1CC2(c3ccc(OC)cc3)C(=O)c3ccccc3N2O1 (centres undefined) |  | > 100 |  | > 100 |  | > 100 |  | > 100 | > 10 |  |  |  |  |  |  |  |  |  |  |  |
